According to patent US11801242B2, “Compositions and methods for adjuvant cancer therapeutics” (DUKE UNIVERSITY, priority 2018, dated 2023):

How the values were obtained:
[1] = target: T1, REV1 CTD-REV7/3 interaction (Mus musculus, UniProt Q920Q2); test: AlphaScreen assay, inhibition of the REV1 CTD-REV7/3 interaction; assay type: binding; conditions: fitting of the inhibition curve, inhibitor 0-25 μM, n=3
T1 construct: fused on or other part: FLAG tag at the N-terminus (after the TEV site; His10-GB1 solubility tag cleaved off); di-glycine linker between mouse POL kappa RIR K564-N577 and the REV1 CTD; Q9QUG2 (DNA polymerase kappa)
T1 sequence (Q920Q2 whole entry, looked up, the tested form may be a part): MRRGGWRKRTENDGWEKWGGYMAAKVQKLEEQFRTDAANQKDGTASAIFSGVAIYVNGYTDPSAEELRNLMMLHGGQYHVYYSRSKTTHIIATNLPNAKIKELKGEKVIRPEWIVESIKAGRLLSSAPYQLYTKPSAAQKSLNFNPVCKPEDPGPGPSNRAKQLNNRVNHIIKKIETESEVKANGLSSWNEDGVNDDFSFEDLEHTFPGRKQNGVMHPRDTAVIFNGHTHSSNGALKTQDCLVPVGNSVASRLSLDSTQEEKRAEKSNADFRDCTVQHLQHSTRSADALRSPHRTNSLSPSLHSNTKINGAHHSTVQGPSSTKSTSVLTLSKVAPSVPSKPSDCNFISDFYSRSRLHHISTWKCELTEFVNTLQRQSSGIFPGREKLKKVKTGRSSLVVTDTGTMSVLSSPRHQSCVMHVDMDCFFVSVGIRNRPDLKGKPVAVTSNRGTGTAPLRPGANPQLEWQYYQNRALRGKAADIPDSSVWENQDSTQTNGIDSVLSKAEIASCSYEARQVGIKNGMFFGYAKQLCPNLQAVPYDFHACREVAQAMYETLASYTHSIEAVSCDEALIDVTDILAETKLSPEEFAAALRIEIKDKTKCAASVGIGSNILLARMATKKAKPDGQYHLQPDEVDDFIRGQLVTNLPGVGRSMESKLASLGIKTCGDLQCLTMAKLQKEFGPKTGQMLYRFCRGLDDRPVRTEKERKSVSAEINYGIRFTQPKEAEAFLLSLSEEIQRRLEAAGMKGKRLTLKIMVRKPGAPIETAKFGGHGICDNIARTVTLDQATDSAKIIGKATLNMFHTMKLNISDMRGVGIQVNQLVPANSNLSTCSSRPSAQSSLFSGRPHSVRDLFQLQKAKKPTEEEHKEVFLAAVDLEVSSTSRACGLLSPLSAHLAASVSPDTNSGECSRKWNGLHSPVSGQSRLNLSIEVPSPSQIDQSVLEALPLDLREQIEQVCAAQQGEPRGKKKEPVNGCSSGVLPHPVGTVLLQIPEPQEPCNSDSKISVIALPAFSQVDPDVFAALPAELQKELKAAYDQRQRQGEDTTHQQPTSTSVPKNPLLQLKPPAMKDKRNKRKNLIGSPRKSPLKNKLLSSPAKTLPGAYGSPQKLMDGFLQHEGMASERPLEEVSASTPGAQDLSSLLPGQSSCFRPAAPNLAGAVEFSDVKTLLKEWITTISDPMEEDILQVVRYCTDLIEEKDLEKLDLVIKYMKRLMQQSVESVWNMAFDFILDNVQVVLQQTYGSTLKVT
Description: The FLAG-tagged mouse POL κ-REV1 CTD was diluted in PBS containing 1 mM Tris(2-carboxyethyl)phosphine (TCEP) and 0.005% Tween-20 at a final protein concentration of 1 nM and transferred to individual wells of a 96-well, half-area, white opaque plate (PerkinElmer). Serially diluted RE01 stock solutions in 50% DMSO were added to the wells to yield final inhibitor concentrations of 0-25 μM in 2% DMSO. After 30 min incubation, anti-FLAG Donor Beads (PerkinElmer) were added to a final concentration of 20 ng/μL to individual wells and incubated for an hour. His8-tagged mouse REV7/3 was subsequently added to the reaction mixture to a final concentration of 10 nM and incubated for 30 min. Anti-His Acceptor Beads (PerkinElmer) were added to a final concentration of 20 ng/μL and incubated for an hour.
Error bars represent standard error (n=3).

Rev1^+/+ MEF cells = test: Clonogenic survival assay; assay type: cell-based, mouse; conditions: RE01 1.5 μM + cisplatin 0.5 μM vs cisplatin alone
Description: (§1) 300 cells were plated in triplicate in 6-well plates for 24 hours. Cisplatin (cis-diammineplatinum(II) dichloride, Sigma-Aldrich) was added to relevant wells for 24 hours. All plates were incubated at 37° C. for 24 hours. Media were changed the next day and in fresh media RE01 (at 1.5 μM concentration) was added to untreated or cisplatin-treated cells for another 24 hours. Media were changed at the end of these combination treatments, and cells were allowed to recover for 7 days. To stain the resulting colonies, media were aspirated and the fixative (50% methanol and 10% glacial acetic acid) was added for 10 minutes, followed by the addition of 0.02% Coomassie brilliant blue R-250 stain (ThermoFisher) in methanol: acetic acid: water in a ratio of 46.5:7:46.5 (v/v/v). Colonies that stained blue and contained at least 40 cells were counted. Relative cell survival or colony formation was calculated by dividing colony counts from treated samples by the DMSO or untreated controls.

Rev1^−/− MEF cells = test: Clonogenic survival assay; assay type: cell-based, mouse
Description: as §1
(§2) REV1 was knocked down by transiently transfecting SMARTpool: ON-TARGETplus REV1 siRNA by nucleofection. The siRNA was mixed with the nucleofection buffer Mouse/Rat Hepatocyte Nucleofector™ Kit (Lonza) and electroporated using the Nucleofector™ 2b device. Full-length mouse Rev1 on the pC3 plasmid (Clontech) was nucleofected using the same buffers and device into Rev1^−/− cells to complement the REV1 function.

A375 cells = test: Clonogenic survival after siRNA knock-down of REV1; assay type: cell-based, human; conditions: RE01 1.5 μM, cisplatin 1 μM
Description: as §1, §2

HT1080 cells [2] = test: Clonogenic survival after siRNA knock-down of REV1; assay type: cell-based, human; conditions: RE01 1.5 μM, cisplatin 1 μM
Description: as §1, §2

HT1080 cells [3] = test: Gapped plasmid TLS assay, cisplatin 1,2-GG lesion; assay type: cell-based, human; conditions: pre-treatment with RE01 1.5, 3.0 and 15.0 μM for 24 hours
Description: The double stranded plasmid pUC19 with ampicillin resistance was modified to include the oligonucleotide containing cisplatin 1,2-GG lesion on one strand and a gapped region across it. Briefly, the 16mer cisplatin-containing oligonucleotide was flanked by two 21mer regular DNA strands (5′-[…]-3′ (SEQ ID NO: 2) on the 5′ end and 5′-[…]-3′ (SEQ ID NO: 3) on the 3′ end) and elongated to a 58mer lesion-containing single strand DNA. After linearizing the plasmid by restriction endonucleases BstAPI and BspQI (New England Biolabs), the 58mer oligonucleotide was mixed with two scaffolds (5′-TGCATGCGCGCTACGACG-3′ (SEQ ID NO: 4) and 5′-[…]-3′ (SEQ ID NO: 5)) and ligated with the linear pUC19 plasmid to build up a circular plasmid containing a site-specific cisplatin 1,2-GG lesion and a 16-nucleotide gap on the opposite strand.
A competitor gapped plasmid that was three bases longer (started from a 19mer oligonucleotide 5′-CTCTCTAGGCTCACTTCTA-3′ (SEQ ID NO: 6)) than the lesion-containing plasmid was used as the internal control. The cells were pre-treated with either DMSO or RE01 (1.5, 3.0 and 15.0 μM) for 24 hours. […] The gap-filling efficiency by TLS was calculated by dividing the output ratio obtained from HPLC-MS with the input ratio (4:1) and the results were normalized to 100%.

SMILES: CC(C)CC(=O)c1c(Nc2ccc(Cl)cc2Cl)[nH]c2c(Cl)ccc([N+](=O)[O-])c2c1=O [RE01, 8-chloro-2-((2,4-dichlorophenyl)amino)-3-(3-methylbutanoyl)-5-nitroquinolin-4(1H)-one]
- IC50 [1]: 780 nM
- colony forming ability (Rev1^+/+ MEF cells): significantly reduced
- colony forming ability (Rev1^−/− MEF cells; RE01 1.5 μM + cisplatin 0.5 μM vs cisplatin alone): but not in Rev1^−/− MEF cells
- RE01 mediated sensitization to cisplatin (Rev1^−/− MEF cells; cells complemented with plasmid encoding REV1, RE01 1.5 μM, cisplatin 1 μM): fully restored
- RE01 mediated sensitization to cisplatin (A375 cells): abolished
- RE01 mediated sensitization to cisplatin (HT1080 cells [2]): abolished
- bypass efficiency of 1,2-GG cisplatin DNA adduct (HT1080 cells [3]): suppresses
